Measured values taken from the supplement of paper PMC10307832.

Experiments:
Assay in all cases: relative viability (nuclei count vs DMSO), 5 days (fraction); higher = more cells survive
[1] = compound: CC1=C(C(=NN1)C)CC2=C(C3=C(S2)N(C(=O)N(C3=O)C)CC(C)C)C(=O)N4C[C@@H](CO4)O + CS(=O)(=O)CCNCc1ccc(-c2ccc3ncnc(Nc4ccc(OCc5cccc(F)c5)c(Cl)c4)c3c2)o1 [Lapatinib] (partner 2 µM)
How it was run: (§1)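 Values are medians from duplicate plates. Each reflects relative viability, defined as the nuclei count of treated wells over that of vehicle wells. Lung cancer cell lines in 1536-well plates were pin-tool dosed one day after seeding with one drug alone or with a fixed anchor-drug dose plus five library-drug doses (not always all listed) in √10 steps, then fixed, stained and imaged at 4× after 5 days.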

IDH-C35 + Phenformin = compound: Cc1ccccc1C(C(=O)NC1CCCCC1)N(C(=O)Cn1ccnc1C)c1cccc(F)c1 [IDH-C35] + N=C(N)NC(=N)NCCc1ccccc1 [Phenformin] (partner 250 µM)
How it was run: as §1

IDH-C35 + Palbociclib = compound: Cc1ccccc1C(C(=O)NC1CCCCC1)N(C(=O)Cn1ccnc1C)c1cccc(F)c1 [IDH-C35] + CC(=O)c1c(C)c2cnc(Nc3ccc(N4CCNCC4)cn3)nc2n(C2CCCC2)c1=O [Palbociclib] (partner 0.5 µM)
How it was run: as §1

IDH-C35 + Luminespib = compound: Cc1ccccc1C(C(=O)NC1CCCCC1)N(C(=O)Cn1ccnc1C)c1cccc(F)c1 [IDH-C35] + CCNC(=O)c1noc(-c2cc(C(C)C)c(O)cc2O)c1-c1ccc(CN2CCOCC2)cc1 [Luminespib] (partner 0.01 µM)
How it was run: as §1

Cell Line | relative viability ([1]; first compound 0.0025 µM) | relative viability ([1]; first compound 0.007906 µM) | relative viability ([1]; first compound 0.025 µM) | relative viability ([1]; first compound 0.07906 µM) | relative viability ([1]; first compound 0.25 µM) | relative viability (IDH-C35 + Phenformin; first compound 0.08 µM) | relative viability (IDH-C35 + Phenformin; first compound 0.253 µM) | relative viability (IDH-C35 + Phenformin; first compound 0.8 µM) | relative viability (IDH-C35 + Phenformin; first compound 2.53 µM) | relative viability (IDH-C35 + Phenformin; first compound 8 µM) | relative viability (IDH-C35 + Palbociclib; first compound 0.08 µM) | relative viability (IDH-C35 + Palbociclib; first compound 0.253 µM) | relative viability (IDH-C35 + Palbociclib; first compound 0.8 µM) | relative viability (IDH-C35 + Palbociclib; first compound 2.53 µM) | relative viability (IDH-C35 + Palbociclib; first compound 8 µM) | relative viability (IDH-C35 + Luminespib; first compound 0.08 µM) | relative viability (IDH-C35 + Luminespib; first compound 0.253 µM) | relative viability (IDH-C35 + Luminespib; first compound 0.8 µM) | relative viability (IDH-C35 + Luminespib; first compound 2.53 µM) | relative viability (IDH-C35 + Luminespib; first compound 8 µM)
NCI-H2009 | 1.12 | 1.48 | 0.963 | 1.04 | 1.26 | 0.56 | 0.498 | 0.521 | 0.451 | 0.481 | 0.25 | 0.28 | 0.32 | 0.227 | 0.147 | 1.08 | 1.01 | 0.999 | 0.921 | 1.01
HCC-15 | 0.941 | 0.814 | 0.786 | 0.82 | 0.899 | 0.521 | 0.464 | 0.501 |  | 0.45 | 0.791 | 0.695 | 0.748 |  | 0.67 | 0.246 | 0.251 | 0.178 |  | 0.314
HCC-44 | 1.01 | 1.1 | 0.988 | 0.908 | 1.11 | 0.227 | 0.293 | 0.254 | 0.166 | 0.182 | 0.973 | 0.965 | 0.987 | 0.951 | 0.962 | 1.06 | 1.06 | 0.986 | 1.04 | 1.05
COR-L23 | 0.883 | 0.846 | 0.656 | 0.826 | 0.923 | 0.478 | 0.42 | 0.423 | 0.421 | 0.382 | 0.31 | 0.294 | 0.305 | 0.311 | 0.315 | 0.789 | 0.656 | 0.664 | 0.641 | 0.679
NCI-H727 | 1.17 | 0.857 | 0.781 | 0.569 | 0.869 | 0.471 | 0.525 | 0.509 | 0.493 | 0.579 | 0.671 | 0.663 | 0.673 | 0.66 | 0.574 | 0.27 | 0.398 | 0.39 | 0.407 | 0.33
NCI-H2087 | 1.11 | 1.15 | 1.09 | 0.939 | 1.23 | 0.482 | 0.433 | 0.398 |  | 0.432 | 0.225 | 0.211 | 0.24 | 0.308 | 0.228 | 0.105 | 0.141 | 0.164 |  | 0.128
BEN | 0.669 | 0.672 | 0.629 | 0.526 | 0.741 | 0.292 | 0.246 | 0.257 | 0.279 | 0.282 | 0.433 | 0.514 | 0.466 | 0.481 | 0.463 | 0.373 | 0.391 | 0.311 | 0.425 | 0.333
EKVX | 0.251 | 0.198 | 0.203 | 0.524 | 0.191 | 0.245 | 0.219 | 0.227 | 0.229 | 0.189 | 0.402 | 0.365 | 0.385 | 0.356 | 0.373 | 0.93 | 0.908 | 0.822 | 0.842 | 0.845
LXF-289 | 0.909 | 0.855 | 0.875 | 0.891 | 0.975 | 0.543 | 0.507 | 0.524 | 0.508 | 0.517 | 0.574 | 0.584 | 0.591 | 0.604 | 0.583 | 0.512 | 0.631 | 0.654 | 0.697 | 0.676
ABC-1 | 1.5 | 0.918 | 1.12 | 0.92 | 0.823 | 0.261 | 0.218 | 0.247 | 0.235 | 0.23 | 0.765 | 0.819 | 0.491 | 0.785 | 0.824 | 0.598 |  | 0.688 | 0.805 | 0.818
NCI-H650 | 0.939 | 0.0037 | 0.753 | 0.893 | 0.956 | 0.453 | 0.465 | 0.505 |  | 0.421 | 0.311 | 0.343 | 0.339 |  | 0.283 | 0.783 | 0.766 | 0.79 |  | 0.799
NCI-H1650 | 0.954 | 1.12 | 0.875 | 0.881 | 0.926 | 0.486 | 0.423 | 0.436 | 0.462 | 0.379 | 0.381 | 0.329 | 0.355 | 0.422 | 0.4 | 0.207 | 0.182 | 0.214 | 0.2 | 0.199
NCI-H2085 | 0.706 | 0.767 | 0.598 | 0.72 | 0.595 | 0.748 | 0.737 | 0.714 | 0.767 | 0.595 | 0.448 | 0.476 | 0.495 | 0.492 | 0.456 | 0.352 | 0.458 | 0.519 | 0.428 | 0.416
NCI-H1793 | 0.514 | 0.649 | 0.549 | 0.431 | 0.426 | 0.399 | 0.418 | 0.399 |  | 0.337 | 0.273 | 0.303 | 0.356 | 0.327 | 0.322 | 0.159 | 0.215 | 0.255 |  | 0.184
LC-2-ad | 1.01 | 0.893 | 0.993 | 0.912 | 1.14 | 0.571 | 0.585 | 0.603 |  | 0.604 | 0.527 | 0.476 | 0.531 | 0.49 | 0.494 | 1.05 | 1.04 | 0.962 |  | 0.939
COR-L 105 | 0.36 | 0.422 | 0.381 | 0.302 | 0.369 | 0.479 | 0.479 | 0.555 | 0.484 | 0.457 | 0.417 | 0.413 | 0.41 | 0.407 | 0.401 | 0.722 | 0.951 | 0.715 | 0.819 | 0.742
